# Source: patent US9546172B2, “Pyrazolo[3,4-d]pyrimidine and pyrazolo[2,3-d]pyrimidine compounds as kinase inhibitors” (Pharmacyclics LLC, priority 2011, dated 2017)
# Key:
# Assay type in all cases: biochemical
# [1] = target: T1, Btk (Homo sapiens, UniProt Q06187); assay: Btk in vitro inhibitory activity (one of Methods A, B, C); conditions: determined in one of three in vitro assays (Examples 125-127)
# T1 construct: purified from insect cells as a full-length construct containing a N-terminal 6×-His tag; 6xHis (N); host or cells: insect cells (baculovirus Sf21 in Method B)
# Protocol: The Btk IC50s of compounds disclosed herein was determined in one of the three in vitro assays described in Examples 125-127.
# (§1) Btk kinase activity was determined using a time-resolved fluorescence resonance energy transfer (TR-FRET) methodology. Measurements were performed in a reaction volume of 50 μL using 96-well assay plates. […] The reaction was quenched by the addition of 1.2 equivalents of EDTA (relative to divalent cation) in 25 μL of 1× Lance buffer (Perkin-Elmer). Streptavidin-APC (Perkin-Elmer) and Eu-labeled p-Tyr100 antibody (Perkin-Elmer) in 1× Lance buffer were added in a 25 μL volume to give final concentrations of 100 nM and 2.5 nM, respectively, and the mixture was allowed to incubate for one hour. The TR-FRET signal was measured on a multimode plate reader with an excitation wavelength (λEx) of 330 nm and detection wavelengths (λEm) of 615 and 665 nm. Activity was determined by the ratio of the fluorescence at 665 nm to that at 615 nm. For each compound, enzyme activity was measured at various concentrations of compound. Negative control reactions were performed in the absence of inhibitor in replicates of six, and two no-enzyme controls were used to determine baseline fluorescence levels Inhibition constants, Ki(app), were obtained using the program BatchKi (Kuzmic et al. (2000), Anal. Biochem. 286:45-50). IC50s were obtained according to the equation: IC50={Ki(app)/(1+[ATP]/Km^ATP)}+[E]total/2; For all kinases, [ATP]=Km^ATP, [Btk]total=0.5 nM and [Lck]total=6 nM.
# Kinase activity is measured in vitro using electrophoretic mobility shift assay. The kinase reactions are assembled in a total volume of 25 μL in 384 well plates. […] The reaction is incubated for one hour and is quenched by the addition of 45 μL of termination buffer (100 mM HEPES, pH7.5, 0.01% Triton X-100, 30 mM EDTA). The terminated reactions are analyzed using 12 channel LabChip® 3000 microfluidic detection instrument (Caliper Life Sciences). The enzymatic phosphorylation of the peptide results in a change in net charge, enabling electrophoretic separation of product from substrate peptide. As substrate and product peptides are separated, two peaks of fluorescence are observed. Change in the relative fluorescence intensity of the substrate and product peaks is the parameter measured, reflecting enzyme activity. In the presence of an inhibitor, the ratio between product and substrate is altered: the signal of the product decreases, while the signal of the substrate increases.
# Activity in each sample is determined as the product to sum ratio (PSR): P/(S+P), where P is the peak height of the product peptide and S is the peak height of the substrate peptide. For each compound, enzyme activity is measured at various concentrations (12 concentrations of compound spaced by 3× dilution intervals). Negative control samples (0%-inhibition in the absence of inhibitor) and positive control samples (100%-inhibition, in the presence of 20 mM EDTA) are assembled in replicates of four and are used to calculate %-inhibition values for each inhibitor at each concentration. Percent inhibition (Pinh) is determined using following equation: Pinh=(PSR0%−PSRinh)/(PSR0%−PSR100%)*100, where PSRinh is the product sum ratio in the presence of inhibitor, PSR0% is the average product sum ration in the absence of inhibitor and PSR100% is the average product sum ratio in 100%-inhibition control samples;
# The IC50 values of inhibitors are determined by 4 parameter sigmoidal dose-response model fitting of the inhibition curves (Pinh versus inhibitor concentration) using XLfit 4 software.
# Human Btk kinase (Genbank accession # NP_000052) was purified from insect cells as a full-length construct containing a N-terminal 6×-His tag. Btk kinase activity was determined using a radiometric filter binding assay. Measurements are performed in a low reaction volume 384-well assay plates. […]
# [2] = target: T2, Tec (Homo sapiens, UniProt P42680); assay: Tec kinase inhibition
# T2 sequence (P42680 1-631): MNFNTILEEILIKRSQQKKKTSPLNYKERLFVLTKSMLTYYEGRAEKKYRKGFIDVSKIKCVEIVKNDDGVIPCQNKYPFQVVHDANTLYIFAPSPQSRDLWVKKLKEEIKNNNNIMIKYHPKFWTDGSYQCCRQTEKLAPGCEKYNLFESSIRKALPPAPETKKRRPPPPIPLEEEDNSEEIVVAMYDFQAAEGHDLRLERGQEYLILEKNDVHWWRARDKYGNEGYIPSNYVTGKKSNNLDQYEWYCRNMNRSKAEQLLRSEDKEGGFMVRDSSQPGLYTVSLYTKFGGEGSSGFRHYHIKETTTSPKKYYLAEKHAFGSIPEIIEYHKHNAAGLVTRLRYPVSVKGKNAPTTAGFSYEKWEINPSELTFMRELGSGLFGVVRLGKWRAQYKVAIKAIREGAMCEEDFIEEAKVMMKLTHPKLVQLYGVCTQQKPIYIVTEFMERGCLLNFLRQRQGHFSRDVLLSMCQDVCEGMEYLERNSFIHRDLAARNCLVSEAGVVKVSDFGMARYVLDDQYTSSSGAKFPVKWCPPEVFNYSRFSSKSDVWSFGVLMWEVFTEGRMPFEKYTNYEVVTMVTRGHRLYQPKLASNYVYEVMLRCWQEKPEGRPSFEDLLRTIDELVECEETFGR
# Protocol: as §1
# [3] = target: EGFR (Homo sapiens, UniProt P00533); assay: EGFR kinase inhibition
# [4] = target: Lck (Homo sapiens, UniProt P06239); assay: Lck kinase inhibition
# Protocol: as §1
# [5] = target: C-src (Homo sapiens, UniProt P12931); assay: C-src kinase inhibition
# Protocol: as §1
# [6] = target: Lyn (Homo sapiens, UniProt P07948); assay: Lyn kinase inhibition
# [7] = target: RET (Homo sapiens, UniProt P07949); assay: RET kinase inhibition
# [8] = target: BLK (Homo sapiens, UniProt P51451); assay: BLK kinase inhibition
# Protocol: as §1
# [9] = target: T3, BMX (Homo sapiens, UniProt P51813); assay: BMX kinase inhibition
# T3 sequence (P51813 1-675): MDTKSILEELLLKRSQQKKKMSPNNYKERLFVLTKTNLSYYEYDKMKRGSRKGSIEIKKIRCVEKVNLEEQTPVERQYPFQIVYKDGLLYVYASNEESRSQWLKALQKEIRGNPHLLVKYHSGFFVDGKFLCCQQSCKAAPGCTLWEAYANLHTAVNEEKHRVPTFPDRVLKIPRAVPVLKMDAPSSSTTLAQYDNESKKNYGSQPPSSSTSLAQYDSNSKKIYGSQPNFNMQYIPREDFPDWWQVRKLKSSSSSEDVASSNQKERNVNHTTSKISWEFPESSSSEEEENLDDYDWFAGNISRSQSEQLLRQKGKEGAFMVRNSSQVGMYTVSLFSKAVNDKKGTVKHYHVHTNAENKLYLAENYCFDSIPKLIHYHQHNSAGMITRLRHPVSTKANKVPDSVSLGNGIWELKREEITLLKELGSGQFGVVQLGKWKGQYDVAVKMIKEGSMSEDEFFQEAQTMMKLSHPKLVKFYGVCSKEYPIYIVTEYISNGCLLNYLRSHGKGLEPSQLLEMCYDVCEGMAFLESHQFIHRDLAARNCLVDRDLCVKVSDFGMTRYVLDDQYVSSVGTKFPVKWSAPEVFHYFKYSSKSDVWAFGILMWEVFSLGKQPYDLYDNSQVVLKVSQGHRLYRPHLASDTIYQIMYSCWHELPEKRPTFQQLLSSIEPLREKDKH
# [10] = target: CSK (Homo sapiens, UniProt P41240); assay: CSK kinase inhibition
# CSK, sequence (P41240 whole entry): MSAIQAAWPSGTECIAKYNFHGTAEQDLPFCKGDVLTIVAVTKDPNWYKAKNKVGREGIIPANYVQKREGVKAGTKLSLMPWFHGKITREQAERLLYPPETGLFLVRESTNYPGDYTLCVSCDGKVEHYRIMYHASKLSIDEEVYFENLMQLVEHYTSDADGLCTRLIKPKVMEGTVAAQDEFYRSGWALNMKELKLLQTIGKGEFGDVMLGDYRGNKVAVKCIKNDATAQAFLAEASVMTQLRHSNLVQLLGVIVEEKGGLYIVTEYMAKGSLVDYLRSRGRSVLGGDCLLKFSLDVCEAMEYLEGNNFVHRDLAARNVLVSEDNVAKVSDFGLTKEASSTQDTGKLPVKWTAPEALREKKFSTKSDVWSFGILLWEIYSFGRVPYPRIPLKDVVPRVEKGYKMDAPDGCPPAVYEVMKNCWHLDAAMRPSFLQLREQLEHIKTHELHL
# Lyn, sequence (P07948 whole entry): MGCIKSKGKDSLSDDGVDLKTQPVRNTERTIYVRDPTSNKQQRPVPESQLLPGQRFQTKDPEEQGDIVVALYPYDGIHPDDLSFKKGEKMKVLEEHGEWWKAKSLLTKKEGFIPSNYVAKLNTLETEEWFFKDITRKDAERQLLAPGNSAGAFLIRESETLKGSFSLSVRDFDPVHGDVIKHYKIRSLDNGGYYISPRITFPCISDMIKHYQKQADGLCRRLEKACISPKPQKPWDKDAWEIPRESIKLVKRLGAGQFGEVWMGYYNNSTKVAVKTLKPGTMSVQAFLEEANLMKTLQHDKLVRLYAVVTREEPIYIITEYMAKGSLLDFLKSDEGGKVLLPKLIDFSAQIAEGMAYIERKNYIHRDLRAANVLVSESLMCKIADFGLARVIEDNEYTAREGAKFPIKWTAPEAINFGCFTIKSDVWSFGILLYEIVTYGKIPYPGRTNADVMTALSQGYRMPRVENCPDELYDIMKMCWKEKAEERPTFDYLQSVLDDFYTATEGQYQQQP
# BLK, sequence (P51451 whole entry): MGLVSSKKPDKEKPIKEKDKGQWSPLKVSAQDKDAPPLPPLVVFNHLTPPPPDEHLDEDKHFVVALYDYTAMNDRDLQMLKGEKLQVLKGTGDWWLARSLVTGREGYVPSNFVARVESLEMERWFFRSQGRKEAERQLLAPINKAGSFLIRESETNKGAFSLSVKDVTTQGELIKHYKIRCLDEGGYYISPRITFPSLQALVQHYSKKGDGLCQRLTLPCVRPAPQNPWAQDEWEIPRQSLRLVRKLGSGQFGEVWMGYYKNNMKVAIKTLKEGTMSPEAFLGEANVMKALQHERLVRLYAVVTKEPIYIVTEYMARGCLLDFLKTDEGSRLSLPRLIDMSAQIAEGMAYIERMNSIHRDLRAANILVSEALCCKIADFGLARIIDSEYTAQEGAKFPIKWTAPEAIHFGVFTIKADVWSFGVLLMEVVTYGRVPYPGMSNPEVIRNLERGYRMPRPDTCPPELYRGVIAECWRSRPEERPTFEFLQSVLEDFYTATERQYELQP
# Lck, sequence (P06239 whole entry): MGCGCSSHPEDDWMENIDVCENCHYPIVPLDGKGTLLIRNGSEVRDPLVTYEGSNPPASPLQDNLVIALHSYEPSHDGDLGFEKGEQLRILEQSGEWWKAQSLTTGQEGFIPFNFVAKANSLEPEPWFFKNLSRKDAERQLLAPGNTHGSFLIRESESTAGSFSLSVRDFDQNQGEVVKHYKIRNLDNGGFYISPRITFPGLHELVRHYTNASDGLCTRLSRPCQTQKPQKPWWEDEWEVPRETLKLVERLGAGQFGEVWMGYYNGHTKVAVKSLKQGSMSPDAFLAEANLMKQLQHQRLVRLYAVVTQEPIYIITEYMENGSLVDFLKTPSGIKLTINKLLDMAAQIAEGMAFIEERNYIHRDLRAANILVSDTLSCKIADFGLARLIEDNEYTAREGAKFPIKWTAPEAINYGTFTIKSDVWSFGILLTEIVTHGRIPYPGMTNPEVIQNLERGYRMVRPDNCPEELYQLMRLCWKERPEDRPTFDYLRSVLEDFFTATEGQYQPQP
# RET, sequence (P07949 29-1114): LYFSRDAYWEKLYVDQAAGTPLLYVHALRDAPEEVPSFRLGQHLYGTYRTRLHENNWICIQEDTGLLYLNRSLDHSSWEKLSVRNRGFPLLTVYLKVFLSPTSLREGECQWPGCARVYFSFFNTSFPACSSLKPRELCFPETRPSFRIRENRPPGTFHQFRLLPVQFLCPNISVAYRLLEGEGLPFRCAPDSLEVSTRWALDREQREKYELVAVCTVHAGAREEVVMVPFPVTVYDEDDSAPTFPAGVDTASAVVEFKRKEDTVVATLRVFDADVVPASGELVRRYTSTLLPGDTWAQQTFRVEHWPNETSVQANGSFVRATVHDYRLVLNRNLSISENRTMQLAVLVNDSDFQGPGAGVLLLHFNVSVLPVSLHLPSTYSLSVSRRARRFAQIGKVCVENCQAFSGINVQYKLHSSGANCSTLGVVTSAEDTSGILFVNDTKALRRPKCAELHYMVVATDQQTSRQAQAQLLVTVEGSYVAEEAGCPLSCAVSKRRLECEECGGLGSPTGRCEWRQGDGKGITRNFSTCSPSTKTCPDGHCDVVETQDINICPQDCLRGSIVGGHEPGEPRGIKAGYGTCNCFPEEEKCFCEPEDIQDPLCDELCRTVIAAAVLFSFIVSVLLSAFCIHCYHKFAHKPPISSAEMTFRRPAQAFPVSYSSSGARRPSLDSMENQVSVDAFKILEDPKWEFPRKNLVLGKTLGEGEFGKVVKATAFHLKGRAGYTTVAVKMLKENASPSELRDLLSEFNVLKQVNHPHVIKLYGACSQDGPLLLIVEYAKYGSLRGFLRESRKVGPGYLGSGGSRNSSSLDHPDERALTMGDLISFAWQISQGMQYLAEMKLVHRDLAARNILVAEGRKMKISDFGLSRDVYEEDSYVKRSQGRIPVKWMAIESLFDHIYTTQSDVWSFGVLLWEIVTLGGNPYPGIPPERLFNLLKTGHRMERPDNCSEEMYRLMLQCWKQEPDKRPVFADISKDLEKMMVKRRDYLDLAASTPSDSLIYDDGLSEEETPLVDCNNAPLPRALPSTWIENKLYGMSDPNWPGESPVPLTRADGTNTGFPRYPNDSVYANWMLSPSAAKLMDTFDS
# T1 sequence (Q06187 whole entry): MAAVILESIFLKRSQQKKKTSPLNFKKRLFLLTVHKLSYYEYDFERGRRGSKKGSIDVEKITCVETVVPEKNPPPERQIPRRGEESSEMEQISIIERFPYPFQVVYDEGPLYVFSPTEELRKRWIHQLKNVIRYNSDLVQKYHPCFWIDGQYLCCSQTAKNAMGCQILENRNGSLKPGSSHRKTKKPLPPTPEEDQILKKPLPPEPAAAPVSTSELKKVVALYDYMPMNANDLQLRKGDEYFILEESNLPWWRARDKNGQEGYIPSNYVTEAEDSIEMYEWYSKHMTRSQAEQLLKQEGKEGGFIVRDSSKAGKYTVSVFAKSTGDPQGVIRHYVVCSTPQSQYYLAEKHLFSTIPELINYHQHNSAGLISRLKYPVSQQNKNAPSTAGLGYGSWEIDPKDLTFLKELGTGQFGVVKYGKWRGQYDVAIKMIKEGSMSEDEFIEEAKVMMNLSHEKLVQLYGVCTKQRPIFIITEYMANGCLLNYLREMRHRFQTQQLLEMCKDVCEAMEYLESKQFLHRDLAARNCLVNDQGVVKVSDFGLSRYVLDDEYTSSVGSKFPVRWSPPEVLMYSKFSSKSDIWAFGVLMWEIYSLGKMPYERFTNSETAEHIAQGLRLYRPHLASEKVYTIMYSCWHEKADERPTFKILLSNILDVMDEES
# EGFR, sequence (P00533 25-1210): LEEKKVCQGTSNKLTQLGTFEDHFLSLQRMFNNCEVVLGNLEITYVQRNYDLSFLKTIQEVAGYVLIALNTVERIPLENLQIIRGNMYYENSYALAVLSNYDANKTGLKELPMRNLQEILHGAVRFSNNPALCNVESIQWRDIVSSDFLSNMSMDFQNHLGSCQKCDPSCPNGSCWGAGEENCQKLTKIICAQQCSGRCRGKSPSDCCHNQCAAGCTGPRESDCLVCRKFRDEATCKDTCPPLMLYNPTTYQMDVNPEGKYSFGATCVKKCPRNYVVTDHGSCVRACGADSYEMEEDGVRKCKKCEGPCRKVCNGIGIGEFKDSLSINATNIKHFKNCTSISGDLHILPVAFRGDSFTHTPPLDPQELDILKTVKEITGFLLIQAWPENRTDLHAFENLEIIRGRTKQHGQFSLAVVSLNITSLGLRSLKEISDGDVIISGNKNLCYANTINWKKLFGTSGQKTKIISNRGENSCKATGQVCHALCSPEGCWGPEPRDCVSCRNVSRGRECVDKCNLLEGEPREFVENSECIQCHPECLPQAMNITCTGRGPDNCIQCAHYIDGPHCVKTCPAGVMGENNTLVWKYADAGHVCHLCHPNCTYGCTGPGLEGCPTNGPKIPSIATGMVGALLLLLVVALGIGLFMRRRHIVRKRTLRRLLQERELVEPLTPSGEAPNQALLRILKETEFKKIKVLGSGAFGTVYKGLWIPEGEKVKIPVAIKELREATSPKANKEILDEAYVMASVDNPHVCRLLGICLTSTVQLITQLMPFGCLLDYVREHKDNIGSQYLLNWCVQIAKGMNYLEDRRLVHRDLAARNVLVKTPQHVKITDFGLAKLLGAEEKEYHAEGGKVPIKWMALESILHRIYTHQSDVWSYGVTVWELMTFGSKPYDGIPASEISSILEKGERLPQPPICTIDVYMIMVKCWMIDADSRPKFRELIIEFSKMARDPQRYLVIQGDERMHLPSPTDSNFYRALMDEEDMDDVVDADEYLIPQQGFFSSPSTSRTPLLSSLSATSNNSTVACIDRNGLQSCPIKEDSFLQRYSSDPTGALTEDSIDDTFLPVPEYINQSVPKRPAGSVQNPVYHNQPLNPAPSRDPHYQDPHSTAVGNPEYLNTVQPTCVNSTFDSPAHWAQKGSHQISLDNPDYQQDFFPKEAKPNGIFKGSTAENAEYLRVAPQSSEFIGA
Compound,IC50 [1] [nM],IC50 [2] [nM],IC50 [3] [nM],IC50 [4] [nM],IC50 [5] [nM],IC50 [6] [nM],IC50 [7] [nM],IC50 [8] [nM],IC50 [9] [nM],IC50 [10] [nM]
"COc1cccc(-c2nn([C@@H]3CCN(C(=O)/C=C/CN(C)C)C3)c3ncnc(N)c23)c1 [Example 6, (R,E)-1-(3-(4-amino-3-(3-methoxyphenyl)-1H-pyrazolo[3,4-d]pyrimidin-1-yl)pyrrolidin-1-yl)-4-(dimethylamino)but-2-en-1-one]",< 100,< 100,100 to 1000,100 to 1000,< 100,100 to 1000,100 to 1000,< 100,< 100,> 1000
"CN(C)C/C=C/C(=O)N1CC[C@@H](n2nc(-c3ccc(Cl)cc3F)c3c(N)ncnc32)C1 [Example 7, (R,E)-1-(3-(4-amino-3-(4-chloro-2-fluorophenyl)-1H-pyrazolo[3,4-d]pyrimidin-1-yl)pyrrolidin-1-yl)-4-(dimethylamino)but-2-en-1-one]",< 100,< 100,100 to 1000,100 to 1000,< 100,100 to 1000,100 to 1000,100 to 1000,< 100,100 to 1000
"COc1cc(-c2nn([C@@H]3CCN(C(=O)/C=C/CN(C)C)C3)c3ncnc(N)c23)ccc1F [Example 8, (R,E)-1-(3-(4-amino-3-(4-fluoro-3-methoxyphenyl)-1H-pyrazolo[3,4-d]pyrimidin-1-yl)pyrrolidin-1-yl)-4-(dimethylamino)but-2-en-1-one]",< 100,< 100,100 to 1000,100 to 1000,100 to 1000,> 1000,> 1000,100 to 1000,< 100,> 1000
"COc1cc(-c2nn(-c3cccc(N(C)C(=O)/C=C/CN(C)C4CC4)c3)c3ncnc(N)c23)ccc1C [Example 24, (E)-N-(3-(4-amino-3-(3-methoxy-4-methylphenyl)-1H-pyrazolo[3,4-d]pyrimidin-1-yl)phenyl)-4-(cyclopropyl(methyl)amino)-N-methylbut-2-enamide]",< 100,< 100,,100 to 1000,100 to 1000,< 100,> 1000,< 100,< 100,> 1000
